# Tests used:
# [1] = system: Fibroblasts (primary human lung and dermal, HFL-1, 3T3 etc); experiment: Cell proliferation assay (BrdU incorporation); assay type: cell-based; details: HFL1, stimulant (LPA, TGFb, serum etc), 50% inhibition of the increase of BrdU incorporation
# Protocol: Assay of Inhibitory Effect on Cell Proliferation (BrdU Incorporation)
# Fibroblasts (primary human lung and dermal, HFL-1, 3T3 etc) were plated on a 96-well plate and serum starved for 24-48 hours. The media were then exchanged for media containing stimulants (LPA, TGFb, serum etc) and cultured further for 16-24 hours before BrdU addition. After culturing for another 8 hours, cells were washed with PBS and the amount of BrdU incorporated into the cells was assayed by absorbance at 450 nm using the Cell proliferation ELISA system (RPN250, Amersham LIFE SCIENCE). The difference between the amount of BrdU incorporated in the stimulant-added well and the amount of BrdU incorporated in the well containing no stimulant represented the amount of BrdU incorporation accelerated by stimulant. The increase of BrdU incorporation without the addition of test compounds was set as 100% and the concentration of compound with 50% inhibition in the increase of BrdU incorporation (IC50 value) was determined. The test compounds were added 0-30 min before stimulant addition.
# Compounds of some embodiments were prepared according to synthetic methods described herein and assay data obtained for IC50 for BrdU inhibition. The assay data obtained is presented in Table 3, in which A=less than 50 μM, B=greater than or equal to 50 μM and less than or equal to 200 μM; and C=greater than 200 μM.
# [2] = system: TGF-b induced Endothelin-1 production; experiment: ET-1 assay: inhibitory effect on TGF-b induced endothelin-1 production; assay type: cell-based; details: Homo sapiens, Fibroblast; fibroblasts, stimulant (TGFb, serum, LPA etc), ET-1 in media by ELISA, 4-parameter fit
# Summary of the method: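 Fibroblasts (primary human lung/dermal, HFL-1, 3T3) serum-starved 0-48 h, preincubated ~30 min with compound, then stimulated (TGFb, serum or LPA) for 16-48 h. Secreted ET-1 measured by ELISA; EC50 from 4-parameter logistic fit, with CC50 from ATPlite in the same wells.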
Structure (SMILES),IC50 [1],EC50 [2]
Cc1cc(=O)n(-c2ccc(Cl)cc2C)cc1-c1cnn(C)c1 [Compound 229],< 50 µM,50 to 200 µM
Cc1cc(=O)n(-c2ccc(OC(C)C)cc2C)cc1-c1cnn(C)c1 [Compound 234],> 200 µM,> 200 µM
Cc1cc(=O)n(-c2ccc(OC(F)(F)F)cc2)cc1-c1c(C)nn(C)c1C [Compound 237],< 50 µM,50 to 200 µM
Cc1cc(=O)n(-c2ccc(OC(F)(F)F)cc2)cc1-c1cn(C)nc1C(F)(F)F [Compound 238],< 50 µM,50 to 200 µM
Cc1cc(=O)n(-c2ccc(OC(F)(F)F)cc2)cc1-c1ccnnc1 [Compound 243],> 200 µM,50 to 200 µM
Cc1cc(=O)n(-c2ccc(OC(F)(F)F)cc2)cc1-c1ccc2scnc2c1 [Compound 251],< 50 µM,< 50 µM
Cc1cc(=O)n(-c2ccc(OC(F)(F)F)cc2)cc1-c1ccc2nccn2c1 [Compound 252],50 to 200 µM,50 to 200 µM
Cc1cc(=O)n(-c2ccc(OC(F)(F)F)cc2)cc1-c1ccc2ocnc2c1 [Compound 254],< 50 µM,< 50 µM
Cc1cc(=O)n(-c2ccc(OC(F)(F)F)cc2)cc1-c1ccc2ccn(C)c2c1 [Compound 258],< 50 µM,< 50 µM
Cc1cc(=O)n(-c2ccc(OC(F)(F)F)cc2)cc1-c1ccc2nonc2c1 [Compound 259],< 50 µM,50 to 200 µM
Cc1cc(=O)n(-c2ccc(OC(F)(F)F)cc2)cc1-c1ccc2ncsc2c1 [Compound 260],< 50 µM,50 to 200 µM
Cc1cc(=O)n(-c2ccc(OC(F)(F)F)cc2)cc1-c1cccc2scnc12 [Compound 261],< 50 µM,> 200 µM
Cc1cc(=O)n(-c2ccc(OC(F)(F)F)cc2)cc1-c1cscn1 [Compound 262],< 50 µM,50 to 200 µM
Cc1cc(=O)n(-c2ccc(OC(F)(F)F)cc2)cc1-c1cccc2ncsc12 [Compound 263],< 50 µM,< 50 µM
COc1cccc(-n2cc(C(F)(F)F)ccc2=O)c1 [Compound 276],> 200 µM,> 200 µM
CCOc1ccc(-n2cc(C(F)(F)F)ccc2=O)c(C)c1 [Compound 278],50 to 200 µM,50 to 200 µM
Cc1ccc(=O)n(-c2cc(F)c(F)c(F)c2)c1 [Compound 282],> 200 µM,> 200 µM
CC(C)c1ccc(=O)n(-c2ccccc2)c1 [Compound 285],> 200 µM,> 200 µM
O=c1ccc(-c2ccc(F)cc2)cn1-c1ccccc1F [Compound 290],> 200 µM,50 to 200 µM
O=c1ccc(-c2ccccc2)cn1-c1cncnc1 [Compound 300],> 200 µM,> 200 µM
CC(C)Oc1ccc(-n2cc(-c3cccc(Cl)c3)ccc2=O)cc1 [Compound 316],< 50 µM,< 50 µM
Cc1ccc(=S)n(-c2ccc(OC(F)(F)F)cc2)c1 [Compound 333],> 200 µM,50 to 200 µM
Cc1cc(-c2ccc(F)cc2)cn(-c2ccc(OC(F)(F)F)cc2)c1=O [Compound 350],50 to 200 µM,50 to 200 µM
Cc1cc(-c2ccc(F)cc2)cn(-c2ccccc2)c1=O [Compound 351],50 to 200 µM,< 50 µM
Cc1cc(-c2cnn(C)c2)cn(-c2ccccc2)c1=O [Compound 353],> 200 µM,50 to 200 µM
Cc1ccc(=O)n(-c2ccc(OC(F)(F)F)cc2)n1 [Compound 360],50 to 200 µM,< 50 µM
O=c1ccc(-c2cn[nH]c2)cn1-c1ccc(OC(F)(F)F)cc1 [Compound 374],50 to 200 µM,< 50 µM

Structure (SMILES),IC50 [1],EC50 [2]
CCOc1ccc(-n2cc(-c3cn[nH]c3)ccc2=O)c(C)c1 [Compound 376],> 200 µM,< 50 µM
Cc1n[nH]c(C)c1-c1ccc(=O)n(-c2ccc(OC(F)(F)F)cc2)c1 [Compound 383],50 to 200 µM,50 to 200 µM
O=c1ccc(-c2cnn(Cc3ccccc3)c2)cn1-c1ccccc1 [Compound 385],< 50 µM,50 to 200 µM
CCOc1ccc(-n2cc(-c3c(C)n[nH]c3C)ccc2=O)c(C)c1 [Compound 387],50 to 200 µM,50 to 200 µM
Cc1c(-c2ccc(=O)n(-c3ccc(OC(F)(F)F)cc3)c2)cnn1C [Compound 391],50 to 200 µM,< 50 µM
Cn1cc(-c2cn(-c3ccc(OC(F)(F)F)cc3)c(=O)c3c2ccn3C)cn1 [Compound 394],< 50 µM,< 50 µM
Cn1cc(-c2cn(-c3ccc(C#N)cc3)c(=O)c3cccnc23)cn1 [Compound 395],50 to 200 µM,50 to 200 µM
O=c1c2nccnc2c(-c2cn[nH]c2)cn1-c1ccc(Cl)cc1 [Compound 399],< 50 µM,> 200 µM
O=c1c2nccnc2c(-c2cn[nH]c2)cn1-c1ccc(OC(F)(F)F)cc1 [Compound 400],< 50 µM,< 50 µM
Cn1cc(-c2cn(-c3ccc(OC(F)(F)F)cc3)c(=O)cc2C#N)cn1 [Compound 402],> 200 µM,< 50 µM
CCOc1ccc(-n2cc(-c3cnn(C)c3)c(Oc3ccccc3)cc2=O)c(C)c1 [Compound 403],< 50 µM,< 50 µM
Cn1cc(-c2cn(-c3ccc(OC(F)(F)F)cc3)c(=O)cc2NCc2ccc(F)cc2F)cn1 [Compound 404],< 50 µM,< 50 µM
Cn1cc(-c2cn(-c3ccc(OC(F)(F)F)cc3)c(=O)cc2NCc2ccc(Cl)cc2Cl)cn1 [Compound 405],< 50 µM,< 50 µM
Cn1cc(-c2cn(-c3ccc(OC(F)(F)F)cc3)c(=O)cc2NCc2ccc(Cl)cc2)cn1 [Compound 406],< 50 µM,50 to 200 µM
Cn1cc(-c2cn(-c3ccc(OC(F)(F)F)cc3)c(=O)cc2NCc2ccc(F)cc2)cn1 [Compound 407],< 50 µM,< 50 µM
Cn1cc(-c2cn(-c3ccc(OC(F)(F)F)cc3)c(=O)cc2Oc2ccc(F)cc2)cn1 [Compound 410],< 50 µM,< 50 µM
Cn1cc(-c2cn(-c3ccc(OC(F)(F)F)cc3)c(=O)cc2NCc2cnccn2)cn1 [Compound 411],< 50 µM,50 to 200 µM
Cn1cc(-c2cn(-c3ccc(OC(F)(F)F)cc3)c(=O)cc2Oc2cccc(Cl)c2)cn1 [Compound 413],< 50 µM,< 50 µM
Cn1cc(-c2cn(-c3ccc(OC(F)(F)F)cc3)c(=O)cc2Oc2ccccc2Cl)cn1 [Compound 414],< 50 µM,< 50 µM
Cc1cc(=O)n(-c2ccc(OC(F)(F)F)cc2)cc1-c1cccc2c1OC(F)(F)O2 [Compound 415],< 50 µM,< 50 µM
CCOC(=O)Nc1cccc(-n2cc(-c3ccc(F)cc3)c(C)cc2=O)c1 [Compound 416],< 50 µM,< 50 µM
Cc1cc(=O)n(-c2cccc(NC(=O)N(C)C)c2)cc1-c1ccc(F)cc1 [Compound 417],< 50 µM,< 50 µM
Cc1cc(=O)n(-c2ccc(NC(N)=O)cc2)cc1-c1ccc(F)cc1 [Compound 418],50 to 200 µM,50 to 200 µM
CNC(=O)Nc1cccc(-n2cc(-c3ccc(F)cc3)c(C)cc2=O)c1 [Compound 419],50 to 200 µM,50 to 200 µM
Cc1cc(=O)n(-c2ccc(OC(F)(F)F)cc2)cc1-c1ccc2c(c1)OCC(=O)N2 [Compound 424],< 50 µM,50 to 200 µM
Cc1cc(=O)n(-c2ccc(OC(F)(F)F)cc2)cc1-c1ccc2c(c1)OCC(=O)N2C [Compound 425],< 50 µM,< 50 µM

# Reference: patent US10233195B2, “Anti-fibrotic pyridinones” (InterMune, Inc., priority 2014, dated 2019)
